EP0881220A1, “DIARYLSULTAM DERIVATIVES” (priority 1996, dated 1997)

Key:
sigma 2 binding site = biological target: T1, sigma 2 binding site (Rattus norvegicus, UniProt Q5U3Y7); assay: Sigma 2 selective receptor binding inhibition assay with [^3H]-di-o-tolylguanidine
T1 sequence (Q5U3Y7 1-176): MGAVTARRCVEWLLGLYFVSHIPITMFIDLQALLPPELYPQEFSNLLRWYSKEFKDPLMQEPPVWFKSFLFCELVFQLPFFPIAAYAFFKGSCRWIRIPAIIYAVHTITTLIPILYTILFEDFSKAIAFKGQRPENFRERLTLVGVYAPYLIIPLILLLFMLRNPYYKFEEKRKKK

sigma 1 binding site = sigma 1 binding site (Cavia porcellus, UniProt Q60492)
Dopamine D2 = biological target: T2, Dopamine D2 (Rattus norvegicus, UniProt P61169); assay: Binding to dopaminergic receptors using rat striata (method of Terai et al.)
T2 construct: dopaminergic receptors was also measured using rat striata; from tissue; host or cells: rat striata
Protocol: The binding of these compounds to dopaminergic receptors was also measured using rat striata according to the method described by Terai et al. (M. Terai, et al., Eur. J. Pharmacol. 1989, 173, 177).

Chain of sigma 1 binding site (Q60492 whole entry): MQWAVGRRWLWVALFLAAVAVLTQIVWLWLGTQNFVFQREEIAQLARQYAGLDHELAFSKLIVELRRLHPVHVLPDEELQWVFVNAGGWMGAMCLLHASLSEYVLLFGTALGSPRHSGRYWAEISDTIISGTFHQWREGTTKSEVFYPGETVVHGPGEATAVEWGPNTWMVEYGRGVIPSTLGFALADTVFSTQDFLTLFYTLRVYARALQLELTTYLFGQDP
T2 sequence (P61169 whole entry): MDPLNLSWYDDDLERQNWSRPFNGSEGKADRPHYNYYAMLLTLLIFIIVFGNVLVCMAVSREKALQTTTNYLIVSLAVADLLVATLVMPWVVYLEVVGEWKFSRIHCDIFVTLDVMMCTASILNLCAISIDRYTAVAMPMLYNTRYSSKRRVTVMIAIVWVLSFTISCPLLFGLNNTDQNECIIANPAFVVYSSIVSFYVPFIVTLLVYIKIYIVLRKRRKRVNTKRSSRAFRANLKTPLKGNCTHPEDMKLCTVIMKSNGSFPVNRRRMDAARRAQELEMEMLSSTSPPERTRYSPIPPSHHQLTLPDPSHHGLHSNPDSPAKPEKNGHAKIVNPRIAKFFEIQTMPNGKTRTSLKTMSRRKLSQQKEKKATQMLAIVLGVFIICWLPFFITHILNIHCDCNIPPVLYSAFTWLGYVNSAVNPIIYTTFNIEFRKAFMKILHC

**Q.** For `O=C(O)/C=C/C(=O)O.O=S1(=O)c2ccccc2Oc2ccccc2N1CC1CCN(C[C@H](O)C23CC4CC(CC(C4)C2)C3)CC1.O=S1(=O)c2ccccc2Oc2ccccc2N1CC1CCN(C[C@H](O)C23CC4CC(CC(C4)C2)C3)CC1` [Example 10, (R,S)-1-(1-Adamantyl)-2-[4-(6H-dibenzo[b,f][1,4,5]oxathiazepin-6-yl-methyl)piperidin-1-yl]ethanol S,S-dioxide hemi-fumarate], which “S2/S1 Ratio” value (sigma 2 binding site; ratio of Sigma 2 Ki to Sigma 1 Ki) is on record?
**A.** 0.004

**Q.** And the Ki (sigma 2 binding site; read-out: Sigma 2 Ki(nM ± SEM), [^3H]-DTG 1 nM, rat liver crude P2 membrane fraction, 500 nM pentazocine, 2 hours at 25°C)?
**A.** 0.76 nM

**Q.** What about the Ki (sigma 1 binding site) of the same compound?
**A.** 200 nM

**Q.** And the Ki (Dopamine D2)?
**A.** > 1000 nM
